Active and inactive are the calls of the source. How the calls were made is not given here. Where only a bound is given, the exact number is not on record here.

Chain of Chaperone protein DnaK (Escherichia coli (strain K12)) (P0A6Y8 whole entry, looked up, the tested form may be a part): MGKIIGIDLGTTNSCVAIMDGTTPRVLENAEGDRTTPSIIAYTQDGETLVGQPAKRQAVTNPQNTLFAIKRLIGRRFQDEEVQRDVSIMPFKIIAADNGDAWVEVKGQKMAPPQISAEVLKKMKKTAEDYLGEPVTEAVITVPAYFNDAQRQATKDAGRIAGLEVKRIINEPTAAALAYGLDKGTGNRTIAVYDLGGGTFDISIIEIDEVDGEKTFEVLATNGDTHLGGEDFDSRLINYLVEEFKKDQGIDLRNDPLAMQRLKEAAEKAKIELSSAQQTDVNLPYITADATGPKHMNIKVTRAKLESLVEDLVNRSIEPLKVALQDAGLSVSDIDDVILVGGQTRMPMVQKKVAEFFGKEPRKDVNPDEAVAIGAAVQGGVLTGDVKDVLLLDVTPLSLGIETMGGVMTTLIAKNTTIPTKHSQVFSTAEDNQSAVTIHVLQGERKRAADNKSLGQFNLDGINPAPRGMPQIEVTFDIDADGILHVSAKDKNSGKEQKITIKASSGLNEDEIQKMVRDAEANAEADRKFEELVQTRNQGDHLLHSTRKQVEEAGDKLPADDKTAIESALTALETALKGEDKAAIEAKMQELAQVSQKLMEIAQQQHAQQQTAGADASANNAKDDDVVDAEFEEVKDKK

The experiment concerns the target Chaperone protein DnaK (Escherichia coli (strain K12)) (UniProt P0A6Y8). Description: binders of DnaK substrate-binding domain, biophysical, NMR, chaperone (AID 1033). The following applies: Purified DnaK SBD, NMR ligand binding.
As to `CC(=O)NC1=NN(c2ccccc2)C(=O)C1`, the Kd is > 4 mM (inactive).
In the case of `O=C(O)c1cccnc1`, the Kd was > 4 mM (inactive).
For `CC(C)C(C)/C=C/C(C)[C@H]1CCC2C3=CCC4CC(=O)CC[C@]4(C)C3CC[C@@]21C` (some centres not stated) the value was > 4 mM (inactive); for `Nc1cc(N)nc(SCc2ccccc2)n1`, > 4 mM (inactive).
For `Cc1ccc(CO)o1` the value was > 4 mM (inactive); for `CC(CCC(=O)O)[C@H]1CCC2C3C(C[C@H](O)[C@@]21C)[C@@]1(C)CC[C@@H](O)C[C@H]1C[C@H]3O` (some centres not stated), > 4 mM (inactive); for `O=C(NCCO)c1ccccc1I`, > 4 mM (inactive).
Regarding `O=C1CC(N2CCC(O)CC2)C(=O)N1c1ccc(F)cc1` (configuration not stated), the Kd is > 4 mM (inactive).
For `CC(C)NC(=O)c1cc(-n2cnnc2)ccc1Cl` the value was > 4 mM (inactive); for `Cn1c(=O)[nH]c(=O)c2c1ncn2CCN1CCCCC1`, > 4 mM (inactive); for `NC(=O)c1ccsc1N`, > 4 mM (inactive).
For `Cc1cc2cc3c(C)cc(=O)oc3c(C)c2o1` the value was > 4 mM (inactive); for `Cc1nc(-c2ccccc2)sc1CN`, > 4 mM (inactive).
As for `CN=C(c1ccc([N+](=O)[O-])cc1)N(C)C`, the Kd is > 4 mM (inactive).
Next, `Oc1ccc(-n2ccnc2)cc1`: > 4 mM (inactive); `CCOc1ccc(-c2c(=O)n(O)c3ccccc3[n+]2[O-])cc1`: > 4 mM (inactive).
Next, `CC12CN(CC#N)CC(C)(CN(CC#N)C1)C2=O`: > 4 mM (inactive); `COc1ccc(/C=C2/SC(N)=NC2=O)c(OC)c1`: > 4 mM (inactive).
For `O=C(NN1C(=O)C2C3C=CC(C3)C2C1=O)C1CC=CCC1` (configuration not stated) the value was > 4 mM (inactive); for `OC1CC(c2ccccc2)NC2(CCCC2)C1` (configuration not stated), > 4 mM (inactive).
With `C/C=C(\C)c1nnc(NC(=O)C(C)C)s1`, the Kd is > 4 mM (inactive).
For `Nc1ccc(NC(=O)c2ccco2)c(Cl)c1` the value was > 4 mM (inactive).
For `NC1C2CC3CC1CC(O)(C3)C2` (configuration not stated) the value was > 4 mM (inactive); for `CC1=C(C(=O)Nc2ccccc2)SCCO1`, > 4 mM (inactive); for `CC(CO)NC(=O)C1C=C2c3cccc4[nH]cc(c34)C[C@H]2N(C)C1` (some centres not stated), > 4 mM (inactive).
For `COc1ccc(-c2cc(=O)c3ccccc3o2)cc1` the value was > 4 mM (inactive); for `Cn1nnc2cc(C(=O)NC3CCCCC3)ccc21`, > 4 mM (inactive); for `NS(=O)(=O)c1ccccc1Cl`, > 4 mM (inactive).
`Cc1[nH]n(-c2ccccc2)c(=O)c1[N+](=O)[O-]`: the Kd is > 4 mM (inactive).
For `N=Nc1c(O)[nH]c2ccccc12` the value was > 4 mM (inactive); for `CC1CCN(C(=S)c2ccccc2O)CC1`, > 4 mM (inactive); for `Cc1ccc(C(=O)Nc2c[nH]c(=O)[nH]c2=O)cc1`, > 4 mM (inactive).
As for `Cc1onc(-c2ccccc2)c1CN`, the Kd was > 4 mM (inactive).
For `O=C(O)C1CC(=O)N(Cc2cccs2)C1` (configuration not stated) the value was > 4 mM (inactive); for `c1ccc(C[N+]23CCN(CC2)CC3)cc1`, > 4 mM (inactive); for `CCc1ccccc1NC(=O)c1ccoc1C`, > 4 mM (inactive).
Next, `OCc1ncoc1-c1ccccc1`: > 4 mM (inactive).
Next, `CC1(C)CC2(C)N(N)C(=O)CN2C(=S)N1` (configuration not stated): > 4 mM (inactive); `CCn1nccc1C(=O)Nc1ccc(Cl)cc1Cl`: > 4 mM (inactive).
As for `O=C(O)c1cc2ccccc2cn1`, the Kd was > 4 mM (inactive).
For `Cn1c(=O)c2c(n(C)c1=O)=NC1(CCCCC1)N=2` the value was > 4 mM (inactive); for `O=C(c1ccc(F)cc1)N1CCOCC1`, > 4 mM (inactive); for `CCOC(=O)C1CCN(c2ncnc3nc[nH]c23)CC1`, > 4 mM (inactive).
For `CC(=O)NC(=S)Nc1nc2ccccc2n1C(C)=O` the value was > 4 mM (inactive); for `Cc1nn2c(=O)c(NC(=O)c3ccccc3)cnc2s1`, > 4 mM (inactive).
For `Cc1csc(NC(=O)c2cccs2)n1` the value was > 4 mM (inactive); for `CS(=O)(=O)c1nncn1-c1ccccc1`, > 4 mM (inactive).
For the molecule `Cc1cccnc1NC1=NCC(C)S1` (configuration not stated), the Kd was > 4 mM (inactive).
Next, `CCC(=O)NC(=S)Nc1ccc(C(N)=O)cc1`: > 4 mM (inactive).
For `CCOC(=O)c1c(C)nc2sccn12` the value was > 4 mM (inactive).
For `CCn1c(C)c(C(C)=O)c(N2CCOCC2)nc1=S` the value was > 4 mM (inactive); for `Clc1ccc(-n2ccnc2)nn1`, > 4 mM (inactive); for `CC(C)(C)C(=O)N1CCCC1C(=O)O` (configuration not stated), > 4 mM (inactive).
In the case of `NC1=NCc2ccccc21`, the Kd is > 4 mM (inactive).
For `CC1(O)CC2C(CC1O)C2(C)C` (configuration not stated) the value was > 4 mM (inactive); for `NC(=O)c1ccc(N=Cc2ccc[nH]2)cc1`, > 4 mM (inactive).
For `Cc1cc(C)n(-c2nc(C)nc(N)n2)n1` the value was > 4 mM (inactive).
As for `Cn1c(NCc2ccco2)nc2ccccc21`, the Kd is > 4 mM (inactive).
Consider `OCc1ccncc1`, for which the Kd was > 4 mM (inactive).
Consider `COc1cc(C)c2c(c1C=O)Oc1c(c(C)c(O)c3c1C(O)OC3=O)OC2=O` (configuration not stated), for which the Kd was > 4 mM (inactive).
Next, `Cc1ccccc1NC(=O)c1ocnc1C`: > 4 mM (inactive); `COc1ccc(/C=C2/C(=O)N=C(N)N2C)cc1OC`: > 4 mM (inactive).
For `Clc1ccc(-c2noc(CN3CCCC3)n2)cc1` the value was > 4 mM (inactive); for `Nc1nnc(SCc2ccccc2Cl)s1`, > 4 mM (inactive); for `CC(C)c1c(O)c(-c2cc3c(c(C(C)C)c2O)CCC2C(C)(C)CCC[C@]32C)cc2c1CCC1C(C)(C)CCC[C@]21C` (some centres not stated), > 4 mM (inactive).
For `Cc1cc2ncc(C(=O)O)c(C)n2n1` the value was > 4 mM (inactive).
On to `O=C(O)C1CC2CC1CCC2O` (configuration not stated), for which the Kd was > 4 mM (inactive).
For `COC(=O)c1scc(C)c1N` the value was > 4 mM (inactive); for `OCc1cccc2nonc12`, > 4 mM (inactive).
For `C=CCn1c(=S)[nH]c2ccc(Br)cc2c1=O` the value was > 4 mM (inactive); for `CCOc1ccc(N2C(=O)CCC2=O)cc1`, > 4 mM (inactive); for `c1ccc(SCc2nc(-c3ccccn3)no2)cc1`, > 4 mM (inactive).
For `CC(=O)N1CCN(c2ccc(O)cc2)CC1` the value was > 4 mM (inactive).
Regarding `O=C(Nc1nc2ccccc2s1)c1ccc(=O)[nH]n1`, the Kd is > 4 mM (inactive).
For `COC(=O)CSc1nc(N)cc(=O)[nH]1` the value was > 4 mM (inactive); for `CC(NC(=O)c1ccco1)c1ccc2c(c1)OCCO2` (configuration not stated), > 4 mM (inactive); for `Cc1c(CO)cnn1-c1ccc(F)cc1`, > 4 mM (inactive).
For `C=C1C[C@]23C[C@@]1(O)CC[C@H]2[C@@]12C=C[C@H](O)C(C)(C(=O)O1)[C@H]2[C@@H]3C(=O)O` the value was > 4 mM (inactive); for `NC1=NC(=O)C(Cc2ccccc2)S1` (configuration not stated), > 4 mM (inactive).
Regarding `Cn1cnc2cc(NC(=O)c3ccco3)ccc21`, the Kd was > 4 mM (inactive).
Regarding `Cc1ccccc1C(=O)Nc1cccc(N)c1`, the Kd is > 4 mM (inactive).
As to `CC(=O)Oc1cc2c(C(C)=O)coc2c2ccccc12`, the Kd was > 4 mM (inactive).
Next, `CC(=O)Nc1ccc(-c2cn3ccsc3n2)cc1`: > 4 mM (inactive).
For `O=C(Nc1nnc(-c2ccco2)o1)C1=COCCO1` the value was > 4 mM (inactive).
Next, `C=C1C(=O)O[C@@H]2C3OC3(C)CC/C=C(\C)CC[C@@H]12` (some centres not stated): > 4 mM (inactive); `CC(=O)CC(=O)N1C(O)CC[N+]1(C)C` (configuration not stated): > 4 mM (inactive); `COc1cc(N)ccc1NC(=O)c1cccs1`: > 4 mM (inactive).
Regarding `CN1CCC=C(C(=O)O)C1`, the Kd was > 4 mM (inactive).
For the molecule `COC(=O)C1=C(C)N(Cc2ccco2)C(=O)C1`, the Kd is > 4 mM (inactive).
Next, `O=C(O)c1ccc(-n2cccc2)cc1`: > 4 mM (inactive); `CCOc1cc(S(=O)(=O)n2nc(C)cc2C)ccc1F`: > 4 mM (inactive).
For `C[C@]12C=CC(=O)C=C1CCC1C2CC[C@]2(C)C(=O)CCC12` (some centres not stated) the value was > 4 mM (inactive); for `CN(C)C(=S)Nc1ccccc1N1CCOCC1`, > 4 mM (inactive).
For `O=c1[nH]c(=O)n(-c2ccc(F)cc2)c(O)c1/C=C1/C=CC=N1` the value was > 4 mM (inactive).
Consider `Cc1cc(=O)c2ccccc2n1CC(N)=O`, for which the Kd is > 4 mM (inactive).
Next, `CN1CCN(C(=O)c2cc(-c3ccccc3)on2)CC1`: > 4 mM (inactive); `OCC(O)Cc1ccc2c(c1)OCO2` (configuration not stated): > 4 mM (inactive).
Next, `CCOC(=O)c1c(C)nc2cc(C)ccn12`: > 4 mM (inactive); `Cn1c(=O)c2cn3ncccc3c2n(C)c1=O`: > 4 mM (inactive).
In the case of `Cc1nc(-c2cccc(C(=O)O)c2)cs1`, the Kd was > 4 mM (inactive).
With `COc1ccc([C@H]2COc3c(ccc(O)c3OC)C2)c(OC)c1O`, the Kd was > 4 mM (inactive).
Next, `CCCCn1c(=O)cc(O)c2ccccc21`: > 4 mM (inactive); `CCOC(=O)Cc1nc2ccccc2[nH]1`: > 4 mM (inactive); `CCc1c(C(=O)N2CCOCC2)csc1C`: > 4 mM (inactive).
Next, `CNS(=O)(=O)c1cccs1`: > 4 mM (inactive).
Next, `COc1ccc(C[C@H]2NC[C@H](O)[C@H]2OC(C)=O)cc1`: > 4 mM (inactive); `Nc1ccc(-c2cn3c(n2)SCC3)cc1`: > 4 mM (inactive).

A word on the Kd: it is the equilibrium constant for the complex coming apart.

The record behind these values is PubChem BioAssay AID1033 (Sanford-Burnham Center for Chemical Genomics, 2008).
